We go through 1 compound from patent US4778796A, “ω-(3-pyridyl)alkenamide derivatives and anti-allergenic pharmaceutical compositions containing same” (Dainippon Pharmaceutical Co., Ltd., priority 1985, dated 1988).

One data set has as its system experimental asthma. The data set can be described thus: Inhibitory effect on experimental asthma in rats. It is filed as in vivo, rat (male Wistar). To be noted: Rattus norvegicus, po, 1 hour before antigen challenge. The procedure:
(2) Inhibitory effect on experimental asthma in rats: This test was carried out by the method of Church and Miller [cf. Brit. […] Male Wistar rats (200-250 g) were sensitized by an intraperitoneal injection of 1 ml of a 0.01% egg albumin solution containing 1 mg of Al(OH)3. Two weeks later, the rats were anesthetized with 1.3 g/kg of urethane. The trachea and jugular vein were cannulated. Respiratory volume and velocity were measured by attaching one end of the tracheal cannula to respiratory volume meter connected to a carrier amplifier and an integrator. The rats were challenged by an intravenous injection of 4 mg/kg of egg ablumin 30 minutes after the anesthesia. Test compounds, dissolved or suspended in a 0.5% aqueous tragacanth solution, were administered orally 1 hour before the antigen challenge. Each group of 4 rats was used for each dose of the test compound. ED50 values were calculated from the best fit linear regression line of inhibitory rates of respiratory volume and velocity in each dose.

The subject of data set [1] is contact hypersensitivity to oxazolone. The data set can be described thus: Inhibitory effect on contact hypersensitivity to oxazolone in mice. It is filed as in vivo, mouse (male ICR). As to conditions: topical, 24 hours after challenge. The procedure:
(3) Inhibitory effect on contact hypersensitivity to oxazolone in mice:
This test was carried out by the method of Evans et al. [cf. Brit.
Male ICR mice (18-20 g) were used. The abdominal region of the mice was carefully clipped with an electric clipper, and 0.1 ml of a 0.5 w/v % oxazolone solution in absolute ethanol was gently rubbed into the clipped area. Five days after the sensitization 20 μl of a 0.5 w/v % oxazolone solution in acetone or chloroform, or the solution containing test compound was applied to both sides of the right ear. The left ear was not treated. Twenty-four hours after the challenge, the animals were sacrificed with diethyl ether. The circular parts (5.5 mm in diameter) of both ears were removed by punching and then weighed. The inhibitory rate was determined by comparing the ear swelling of the mice treated with oxazolone containing test compound with that of the mice treated with oxazolone. Each group of 8 mice was used for each dose of the test compound.

Another data set deals with human basophils. The data set is described as follows: Inhibitory effect on histamine release induced by anti-human IgE antibody from healthy human basophils. It is filed as cell-based. As to the method: (3) Inhibitory effect on histamine release induced by anti-human IgE antibody from healthy human basophils:
Basophils from nonallergic volunteers were collected by the method of Levy and Osler [cf. […] The cells were washed once with a cold Tris-A buffer at pH 7.4 (25 mM Tris, 120 mM NaCl, 5 mM KCl and 0.03% human serum albumin) containing 4 mM EDTA and twice with Tris-A buffer. After washing, the cells were resuspended at 5-10×10^6 leukocytes/ml in Tris-ACM buffer at pH 7.6 (Tris-A buffer, 0.6 mM CaCl2 and 1 mM MgCl2). One ml of the cell suspension was incubated with 0.1 ml of a solution of test compound or vehicle for 15 minutes at 37° C., and then for further 45 minutes with 0.1 ml of anti-human IgE antibody. After ice-cooling, the reaction mixtures were centrifuged at 1,200 rpm for 8 minutes at 4° C. The supernatant fluids and the cells were analysed separately for histamine by a modification of the spectrophotofluorometric technique of Shore et al. [cf. […] Histamine release rate was calculated according to the following equation. [formula] A: total histamine (supernatant+cell) B: supernatant histamine without anti-IgE
C: supernatant histamine with anti-IgE
Inhibitory rate was calculated from histamine release rates without vs. with test compound.

Data set [2] concerns passive cutaneous anaphylaxis (PCA). The data set can be described thus: Inhibitory effect on passive cutaneous anaphylaxis (PCA) in rats. Format: in vivo, rat (male Wistar). To be noted: Rattus norvegicus; 20 mg/kg, oral, 1 hour before antigen challenge; read-out: Inhibition (PCA in rats). As to the method:
(1) Inhibitory effect on passive cutaneous anaphylaxis (PCA) in rats:
This test was carried out by the method of Perper et al. [cf.
Male Wistar rats (130-180 g) were injected with 0.1 ml of a dilute solution of mouse antiserum to egg albumin in two sites of the shaved ventral skin. Forty-eight hours later each rat was challenged by an intravenous injection of 2 mg of the antigen together with 1 ml of a 0.5% Evan's blue saline solution. The rats were sacrificed 30 minutes after the challenge. The area of the blueing lesions was measured on the undersurface of the skin. The average value of the two lesions of each rat was regarded as the response of the rat. Test compounds in a dose of 20 mg/kg, dissolved or suspended in a 0.5% aqueous tragacanth solution, were administered orally 1 hour before the antigen challenge. The inhibitory rate was determined by comparing the responses of the rats given each test compound with those of the rats given only a 0.5% aqueous tragacanth solution. Each group of 3 rats was used for each test compound. The mouse antiserum to egg albumin was produced by the method of Levine and Vaz [cf. Int. Arch. Allergy Appl.

The subject of data set [3] is histamine-induced contraction of isolated guinea pig trachea. The data set is described as follows: Inhibitory effect on histamine-induced contraction of isolated guinea pig trachea. Also noted: species or system guinea pig (male Hartley). The procedure:
(2) Inhibitory effect on histamine-induced contraction of isolated guinea pig trachea:
Male Hartley guinea pigs (400-700 g) were used. Zig-zag strips of guinea pig trachea were prepared by the method of Emmerson and Mackay [cf. J. Pharm. […] Dose-response curves for histamine were obtained before and 5 minutes after the addition of test compounds. Inhibitory rate was calculated from contraction heights in 3×10^-5 M of histamine without vs. with test compound.

Data set [4] in a line: Acute lethal toxicity in mice. To be noted: mouse, in vivo; oral, mortality observed for two weeks. The procedure: Test 3 Acute lethal toxicity in mice
Test compounds were suspended in a 0.5% aqueous tragacanth solution. LD50 values were calculated according to the method of Litchfield and Wilcoxon [cf. J. Pharmacol. Exp. Ther., 96, 99 (1949)].

[5] abbreviates: compared with ketotifen fumarate.

As a reminder, the ED50 is the midpoint of the dose-response relation. The IC50 is the concentration that inhibits the measured activity by half. In general, LD50 refers to the dose expected to kill half of the subjects tested. A high value points to lower toxicity.

Each structure is given as a SMILES string. Where two headings read alike, the source gives them in different places.

For the compound `Cc1ccc(C=CC(=O)NCCCCN2CCN(C(c3ccccc3)c3ccccc3)CC2)cn1` [Example 2, N-[3-(6-methyl-3-pyridyl)acryloyl]-4-(4-diphenylmethyl-1-piperazinyl)butylamine], the ED50 in the data set on experimental asthma (respiratory velocity, read-out: ED50, respiratory velocity) was found to be 5.5 mg/kg; in the data set on experimental asthma (respiratory volume, read-out: ED50, respiratory volume), 14.4 mg/kg. Besides, the “% Inhibition of ear swelling” value in data set [1] (0.3 mg/ear) was determined as 40.8%; in data set [1] (1.0 mg/ear), 90.0%. For the same compound, the IC50 worked out at 34 µM with human basophils (anti-human IgE antibody, human basophils, read-out: Histamine release inhibit. IC50) and 1.1 µM in data set [3] (3×10^-5 M histamine, isolated guinea pig trachea, read-out: Anti-hist. activity IC50). Also, the “ability to inhibit histamine release (in words)” value in the data set on human basophils (setting [5]) is on record as “superior to ketotifen fumarate in the ability to inhibit histamine release”. The inhibition in vivo at 20 mg/kg in data set [2] is 81.9%. For the same compound, the “antihistamine activity (in words)” value in data set [3] (setting [5]) is “potent antihistamine activity, though fairly inferior to that of ketotifen fumarate”. In addition, the median lethal dose (LD50) at 336 h in data set [4] worked out at 601 mg/kg.
